Measured values as given in US20230085307A1, “PYRIDAZINONE COMPOUND AND HERBICIDE” (NISSAN CHEMICAL CORPORATION, priority 2019, published 2023).

Columns and labels:
[1] = system: persian speedwell; experiment: Test Example 5: herbicidal effect by foliage application, plastic box (Table 20, symbol R); assay type: in vivo, Persian speedwell (Veronica persica)
Summary of the method: (§1)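 Sow seeds spot-wise in sterilized diluvial soil; cover with ~1.5 cm soil. Grow 14 days in greenhouse, 25° C. to 30° C. Spray foliage with emulsion diluted to predetermined amount. Rate effect after 3 weeks.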

[2] = system: Italian ryegrass; experiment: Test Example 4: herbicidal effect by soil treatment (Table 19, symbol K); assay type: in vivo, Italian ryegrass (Lolium multiflorum)
Summary of the method: (§2)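 Soil-surface application: an emulsion agent diluted with water to the predetermined dose is sprayed uniformly over seeds lying under roughly 1.5 cm of sterilized diluvial soil. Boxes stay in a greenhouse at 25° C. to 30° C. Three weeks later, each species is graded on previously defined criteria.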

[3] = system: southern crabgrass; experiment: Test Example 4: herbicidal effect by soil treatment (Table 19, symbol F); assay type: in vivo, southern crabgrass (Digitaria ciliaris)
Summary of the method: as §2

[4] = system: persian speedwell; experiment: Test Example 4: herbicidal effect by soil treatment (Table 19, symbol R); assay type: in vivo, Persian speedwell (Veronica persica)
Summary of the method: as §2

[5] = system: oval-leafed pondweed; experiment: Test Example 2: herbicidal activity, application during weed generation under submerged conditions (Table 17, symbol C); assay type: in vivo, oval-leafed pondweed (Monochoria vaginalis); settings: AAH 320 g/ha; application during weed generation, submerged conditions
Summary of the method: (§3)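 Effect on each weed is rated three weeks post-treatment, using the same scoring criteria as the preceding test. Plants grow from mixed-sown seed in flooded alluvial soil (4 cm water) at 25° C. to 30° C., and are treated at one to two leaves with diluted emulsion dropped onto the water.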

[6] = system: barnyard grass; experiment: Test Example 5: herbicidal effect by foliage application, plastic box (Table 20, symbol H); assay type: in vivo, barnyard grass (Echinochloa crus-galli)
Summary of the method: as §1

[7] = system: velvetleaf; experiment: Test Example 4: herbicidal effect by soil treatment (Table 19, symbol M); assay type: in vivo, velvetleaf (Abutilon theophrasti)
Summary of the method: as §2

[8] = system: lambsquarters; experiment: Test Example 4: herbicidal effect by soil treatment (Table 19, symbol O); assay type: in vivo, lambsquarters (Chenopodium album)
Summary of the method: as §2

[9] = system: rice flat sedge; experiment: Test Example 3: herbicidal effect by foliage application, Wagner pot (Table 18, symbol E); assay type: in vivo, rice flat sedge (Cyperus iria); settings: 320 g/ha
Summary of the method: (§4)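 Plants were sown in alluvial soil held under 0.1–0.5 cm standing water and grown 14 days in a greenhouse at 25–30 °C. An emulsifiable formulation, water-diluted to the set dose, was then sprayed onto the foliage, and effects were scored three weeks later using previously defined criteria.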

[10] = system: wild oat; experiment: Test Example 5: herbicidal effect by foliage application, plastic box (Table 20, symbol I); assay type: in vivo, wild oat (Avena fatua)
Summary of the method: as §1

[11] = system: redroot pigweed; experiment: Test Example 4: herbicidal effect by soil treatment (Table 19, symbol N); assay type: in vivo, redroot pigweed (Amaranthus retroflexus)
Summary of the method: as §2

[12] = system: southern crabgrass; experiment: Test Example 5: herbicidal effect by foliage application, plastic box (Table 20, symbol F); assay type: in vivo, southern crabgrass (Digitaria ciliaris)
Summary of the method: as §1

[13] = system: green foxtail; experiment: Test Example 5: herbicidal effect by foliage application, plastic box (Table 20, symbol G); assay type: in vivo, green foxtail (Setaria viridis)
Summary of the method: as §1

[14] = system: Chinese sprangletop; experiment: Test Example 3: herbicidal effect by foliage application, Wagner pot (Table 18, symbol D); assay type: in vivo, chinese sprangletop (Leptochloa chinensis); settings: 320 g/ha
Summary of the method: as §4

[15] = system: wild oat; experiment: Test Example 4: herbicidal effect by soil treatment (Table 19, symbol I); assay type: in vivo, wild oat (Avena fatua)
Summary of the method: as §2

[16] = system: green foxtail; experiment: Test Example 4: herbicidal effect by soil treatment (Table 19, symbol G); assay type: in vivo, green foxtail (Setaria viridis)
Summary of the method: as §2

[17] = system: windgrass; experiment: Test Example 4: herbicidal effect by soil treatment (Table 19, symbol L); assay type: in vivo, windgrass (Apera spica-venti)
Summary of the method: as §2

[18] = system: late watergrass; experiment: Test Example 2: herbicidal activity, application during weed generation under submerged conditions (Table 17, symbol A); assay type: in vivo, late watergrass (Echinochloa oryzicola); settings: AAH 320 g/ha; application during weed generation, submerged conditions
Summary of the method: as §3

[19] = system: blackgrass; experiment: Test Example 5: herbicidal effect by foliage application, plastic box (Table 20, symbol J); assay type: in vivo, blackgrass (Alopecurus myosuroides)
Summary of the method: as §1

[20] = system: windgrass; experiment: Test Example 5: herbicidal effect by foliage application, plastic box (Table 20, symbol L); assay type: in vivo, windgrass (Apera spica-venti)
Summary of the method: as §1

[21] = system: blackgrass; experiment: Test Example 4: herbicidal effect by soil treatment (Table 19, symbol J); assay type: in vivo, blackgrass (Alopecurus myosuroides)
Summary of the method: as §2

[22] = system: barnyard grass; experiment: Test Example 4: herbicidal effect by soil treatment (Table 19, symbol H); assay type: in vivo, barnyard grass (Echinochloa crus-galli)
Summary of the method: as §2

[23] = system: chickweed; experiment: Test Example 5: herbicidal effect by foliage application, plastic box (Table 20, symbol P); assay type: in vivo, common chickweed (Stellaria media)
Summary of the method: as §1

[24] = system: Italian ryegrass; experiment: Test Example 5: herbicidal effect by foliage application, plastic box (Table 20, symbol K); assay type: in vivo, Italian ryegrass (Lolium multiflorum)
Summary of the method: as §1

[25] = system: chickweed; experiment: Test Example 4: herbicidal effect by soil treatment (Table 19, symbol P); assay type: in vivo, common chickweed (Stellaria media)
Summary of the method: as §2

[26] = system: lambsquarters; experiment: Test Example 5: herbicidal effect by foliage application, plastic box (Table 20, symbol O); assay type: in vivo, lambsquarters (Chenopodium album)
Summary of the method: as §1

[27] = system: Japanese bulrush; experiment: Test Example 2: herbicidal activity, application during weed generation under submerged conditions (Table 17, symbol B); assay type: in vivo, Japanese bulrush (Schoenoplectus juncoides); settings: AAH 320 g/ha; application during weed generation, submerged conditions
Summary of the method: as §3

[28] = system: barnyard grass; experiment: Test Example 3: herbicidal effect by foliage application, Wagner pot (Table 18, symbol H); assay type: in vivo, barnyard grass (Echinochloa crus-galli); settings: 320 g/ha
Summary of the method: as §4

[29] = system: velvetleaf; experiment: Test Example 5: herbicidal effect by foliage application, plastic box (Table 20, symbol M); assay type: in vivo, velvetleaf (Abutilon theophrasti)
Summary of the method: as §1

[30] = system: redroot pigweed; experiment: Test Example 5: herbicidal effect by foliage application, plastic box (Table 20, symbol N); assay type: in vivo, redroot pigweed (Amaranthus retroflexus)
Summary of the method: as §1

[31] = foliage application, AAH 320 g/ha, three weeks after application
[32] = amount of applied herbicide 320 g/ha, foliage application after 14-day growth, evaluated three weeks after application
[33] = amount of applied herbicide 320 g/ha

SMILES: Cc1nn(C)c(=O)c(-c2c(-c3ccc(OCc4cnc(Cl)s4)cc3)sc3ccccc23)c1O [1-144]
- R: persian speedwell, herbicidal effect [1, 31]: 5 (Herbicidal rate of 90% or more (almost completely withered))
- K: Italian ryegrass, herbicidal effect rating ([2]; AAH 320 g/ha): 3 (Herbicidal rate of 40% or more and less than 70%)
- F: southern crabgrass, herbicidal effect rating ([3]; AAH 320 g/ha): 0 (Herbicidal rate of 5% or less (almost no effect))
- R: persian speedwell, herbicidal effect rating ([4]; AAH 320 g/ha): 3 (Herbicidal rate of 40% or more and less than 70%)
- herbicidal effect rating, C: oval-leafed pondweed [5]: 0 (Herbicidal rate of 5% or less (almost no effect))
- H: barnyard grass, herbicidal effect [6, 31]: 5 (Herbicidal rate of 90% or more (almost completely withered))
- M: velvetleaf, herbicidal effect rating ([7]; AAH 320 g/ha): 0 (Herbicidal rate of 5% or less (almost no effect))
- O: lambsquarters, herbicidal effect rating ([8]; AAH 320 g/ha): 0 (Herbicidal rate of 5% or less (almost no effect))
- herbicidal effect on E (rice flat sedge), rating 0-5 [9]: 5 (Herbicidal rate of 90% or more (almost completely withered))
- I: wild oat, herbicidal effect [10, 31]: 0 (Herbicidal rate of 5% or less (almost no effect))
- N: redroot pigweed, herbicidal effect rating ([11]; AAH 320 g/ha): 0 (Herbicidal rate of 5% or less (almost no effect))
- F: southern crabgrass, herbicidal effect [12, 31]: 5 (Herbicidal rate of 90% or more (almost completely withered))
- G: green foxtail, herbicidal effect [13, 31]: 4 (Herbicidal rate of 70% or more and less than 90%)
- herbicidal effect on D (Chinese sprangletop), rating 0-5 [14]: 3 (Herbicidal rate of 40% or more and less than 70%)
- I: wild oat, herbicidal effect rating ([15]; AAH 320 g/ha): 0 (Herbicidal rate of 5% or less (almost no effect))
- G: green foxtail, herbicidal effect rating ([16]; AAH 320 g/ha): 0 (Herbicidal rate of 5% or less (almost no effect))
- L: windgrass, herbicidal effect rating ([17]; AAH 320 g/ha): 0 (Herbicidal rate of 5% or less (almost no effect))
- herbicidal effect rating, A: late watergrass [18]: 2 (Herbicidal rate of 20% or more and less than 40%)
- J: blackgrass, herbicidal effect [19, 31]: 5 (Herbicidal rate of 90% or more (almost completely withered))
- L: windgrass, herbicidal effect [20, 31]: 5 (Herbicidal rate of 90% or more (almost completely withered))
- J: blackgrass, herbicidal effect rating ([21]; AAH 320 g/ha): 1 (Herbicidal rate of 5% or more and less than 20%)
- H: barnyard grass, herbicidal effect rating ([22]; AAH 320 g/ha): 0 (Herbicidal rate of 5% or less (almost no effect))
- P: chickweed, herbicidal effect [23, 31]: 5 (Herbicidal rate of 90% or more (almost completely withered))
- K: Italian ryegrass, herbicidal effect [24, 31]: 4 (Herbicidal rate of 70% or more and less than 90%)
- P: chickweed, herbicidal effect rating ([25]; AAH 320 g/ha): 3 (Herbicidal rate of 40% or more and less than 70%)
- O: lambsquarters, herbicidal effect [26, 31]: 1 (Herbicidal rate of 5% or more and less than 20%)
- herbicidal effect rating, B: Japanese bulrush [27]: 0 (Herbicidal rate of 5% or less (almost no effect))
- herbicidal effect on H (barnyard grass), rating 0-5 [28]: 5 (Herbicidal rate of 90% or more (almost completely withered))
- M: velvetleaf, herbicidal effect [29, 31]: 2 (Herbicidal rate of 20% or more and less than 40%)
- N: redroot pigweed, herbicidal effect [30, 31]: 3 (Herbicidal rate of 40% or more and less than 70%)

SMILES: Cc1nn(C)c(=O)c(-c2c(-c3ccccc3OC(F)F)sc3cc(F)c(F)cc23)c1O [5-021]
- Herbicidal effect by foliage application, R: persian speedwell [1, 32]: 5 (Herbicidal rate of 90% or more (almost completely withered))
- K: Italian ryegrass, herbicidal effect grade [2, 33]: 0 (Herbicidal rate of 5% or less (almost no effect))
- F: southern crabgrass, herbicidal effect grade [3, 33]: 5 (Herbicidal rate of 90% or more (almost completely withered))
- R: persian speedwell, herbicidal effect grade [4, 33]: 5 (Herbicidal rate of 90% or more (almost completely withered))
- herbicidal effect rating, C: oval-leafed pondweed [5]: 0 (Herbicidal rate of 5% or less (almost no effect))
- Herbicidal effect by foliage application, H: barnyard grass [6, 32]: 4 (Herbicidal rate of 70% or more and less than 90%)
- M: velvetleaf, herbicidal effect grade [7, 33]: 4 (Herbicidal rate of 70% or more and less than 90%)
- O: lambsquarters, herbicidal effect grade [8, 33]: 3 (Herbicidal rate of 40% or more and less than 70%)
- herbicidal effect on rice flat sedge (E) [9]: 5 (Herbicidal rate of 90% or more (almost completely withered))
- Herbicidal effect by foliage application, I: wild oat [10, 32]: 2 (Herbicidal rate of 20% or more and less than 40%)
- N: redroot pigweed, herbicidal effect grade [11, 33]: 4 (Herbicidal rate of 70% or more and less than 90%)
- Herbicidal effect by foliage application, F: southern crabgrass [12, 32]: 5 (Herbicidal rate of 90% or more (almost completely withered))
- Herbicidal effect by foliage application, G: green foxtail [13, 32]: 5 (Herbicidal rate of 90% or more (almost completely withered))
- herbicidal effect on Chinese sprangletop (D) [14]: 3 (Herbicidal rate of 40% or more and less than 70%)
- I: wild oat, herbicidal effect grade [15, 33]: 0 (Herbicidal rate of 5% or less (almost no effect))
- G: green foxtail, herbicidal effect grade [16, 33]: 5 (Herbicidal rate of 90% or more (almost completely withered))
- L: windgrass, herbicidal effect grade [17, 33]: 4 (Herbicidal rate of 70% or more and less than 90%)
- herbicidal effect rating, A: late watergrass [18]: 0 (Herbicidal rate of 5% or less (almost no effect))
- Herbicidal effect by foliage application, J: blackgrass [19, 32]: 4 (Herbicidal rate of 70% or more and less than 90%)
- Herbicidal effect by foliage application, L: windgrass [20, 32]: 5 (Herbicidal rate of 90% or more (almost completely withered))
- J: blackgrass, herbicidal effect grade [21, 33]: 0 (Herbicidal rate of 5% or less (almost no effect))
- H: barnyard grass, herbicidal effect grade [22, 33]: 4 (Herbicidal rate of 70% or more and less than 90%)
- Herbicidal effect by foliage application, P: chickweed [23, 32]: 5 (Herbicidal rate of 90% or more (almost completely withered))
- Herbicidal effect by foliage application, K: Italian ryegrass [24, 32]: 4 (Herbicidal rate of 70% or more and less than 90%)
- P: chickweed, herbicidal effect grade [25, 33]: 2 (Herbicidal rate of 20% or more and less than 40%)
- Herbicidal effect by foliage application, O: lambsquarters [26, 32]: 3 (Herbicidal rate of 40% or more and less than 70%)
- herbicidal effect rating, B: Japanese bulrush [27]: 2 (Herbicidal rate of 20% or more and less than 40%)
- herbicidal effect on barnyard grass (H) [28]: 4 (Herbicidal rate of 70% or more and less than 90%)
- Herbicidal effect by foliage application, M: velvetleaf [29, 32]: 5 (Herbicidal rate of 90% or more (almost completely withered))
- Herbicidal effect by foliage application, N: redroot pigweed [30, 32]: 4 (Herbicidal rate of 70% or more and less than 90%)
